From patent US10676465B2, “GLP-1 receptor agonists and uses thereof” (Pfizer Inc., priority 2018, dated 2020)
Where two headings read alike, the source gives them in different places.

Tests used:
human GLP-1R [1] = target: human GLP-1R (Homo sapiens (Human), UniProt P43220, L260F); test: CHO GLP-1R Clone C6 - Assay 2 (HTRF cAMP agonist assay, low receptor density); details: for Emax: read-out: Assay 2 Emax (%), CHO GLP-1R Clone C6 (low receptor density)
human GLP-1R [2] = target: human GLP-1R (Homo sapiens, UniProt P43220, G168S); test: CHO GLP-1R Clone H6 - Assay 1 (HTRF cAMP agonist assay); format: cell-based; details: for EC50: CHO GLP-1R Clone H6, cAMP HTRF, geometric mean; for Emax / Assay 1 Emax (%): CHO GLP-1R Clone H6, arithmetic mean, relative to saturating GLP-1 (1 μM)
[3] = Assay 2 EC50 (nM), CHO GLP-1R Clone C6 (low receptor density), cAMP HTRF, geometric mean
[4] = arithmetic mean, relative to saturating GLP-1 (1 μM)
[5] = read-out: Assay 2 EC50, CHO GLP-1R Clone C6 (low receptor density), cAMP HTRF, geometric mean
[6] = EC50 in Assay 2, CHO GLP-1R Clone C6, cAMP, geometric mean of replicates

human GLP-1R (Homo sapiens (Human), UniProt P43220, L260F), sequence (P43220 24-463 L260F): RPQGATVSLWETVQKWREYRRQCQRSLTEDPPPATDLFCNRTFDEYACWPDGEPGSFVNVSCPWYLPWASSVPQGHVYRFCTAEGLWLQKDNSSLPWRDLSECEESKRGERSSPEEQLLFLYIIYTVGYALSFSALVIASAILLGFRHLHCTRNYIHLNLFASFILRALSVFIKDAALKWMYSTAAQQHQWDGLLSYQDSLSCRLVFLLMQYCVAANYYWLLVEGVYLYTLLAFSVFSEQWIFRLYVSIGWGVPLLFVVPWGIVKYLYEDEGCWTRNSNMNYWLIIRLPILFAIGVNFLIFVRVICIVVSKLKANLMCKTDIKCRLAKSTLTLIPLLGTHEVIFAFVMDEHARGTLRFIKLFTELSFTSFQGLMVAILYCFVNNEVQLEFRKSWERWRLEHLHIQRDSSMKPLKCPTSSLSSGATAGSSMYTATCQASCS
human GLP-1R (Homo sapiens, UniProt P43220, G168S), sequence (P43220 24-463 G168S limits assumed): as the sequence (P43220 24-463 L260F) above, with G145S, F237L counted along it

For `COCCn1c(CN2CCN(c3cccc4c3OC(c3ccc(Cl)cc3F)O4)CC2)nc2ccc(C(=O)O)cc21` (single isomer, unassigned) [Example 1, 2-({4-[2-(4-Chloro-2-fluorophenyl)-1,3-benzodioxol-4-yl]piperazin-1-yl}methyl)-1-(2-methoxyethyl)-1H-benzimidazole-6-carboxylic Acid], the EC50 (human GLP-1R [1]; [3]) was over 20000 nM, the EC50 (human GLP-1R [2]) was 880 nM and the Emax (human GLP-1R [2]) was 99%.
`COCCn1c(CN2CCN(c3cccc4c3OC(c3ccc(Cl)cc3F)O4)CC2)nc2ccc(C(=O)O)cc21` (single isomer, unassigned) [Example 2, 2-({4-[2-(4-Chloro-2-fluorophenyl)-1,3-benzodioxol-4-yl]piperazin-1-yl}methyl)-1-(2-methoxyethyl)-1H-benzimidazole-6-carboxylic Acid] was tested, and the EC50 (human GLP-1R [1]; [3]) was 260 nM, the Emax (human GLP-1R [1]; [4]) was 100% and the EC50 (human GLP-1R [2]) was 6.6 nM. The “Assay 1 Emax (%)” value (human GLP-1R [2]) was 81%.
`CC1(c2ccc(C#N)cc2F)Oc2cccc(C3CCN(Cc4nc5ccc(C(=O)O)cc5n4C[C@@H]4CCO4)CC3)c2O1` (single isomer, unassigned) [Example 8] gave an EC50 (human GLP-1R [1]; [3]) of 3.6 nM, an Emax (human GLP-1R [1]; [4]) of 91% and an EC50 (human GLP-1R [2]) of 0.3 nM. For the same molecule, the Emax (human GLP-1R [2]) was 92%.
`CC1(c2ccc(C#N)cc2F)Oc2cccc(C3CCN(Cc4nc5ccc(C(=O)O)cc5n4C[C@@H]4CCO4)CC3)c2O1` (single isomer, unassigned) [Example 9] was tested, and the EC50 (human GLP-1R [1]; [3]) was 1600 nM, the “Assay 2 Emax (%)” value (human GLP-1R [1]; CHO GLP-1R Clone C6 (low receptor density), arithmetic mean, relative to saturating GLP-1 (1 μM)) was 90% and the EC50 (human GLP-1R [2]) was 73 nM. The “Assay 1 Emax (%)” value (human GLP-1R [2]) was 88%.
`CC1(c2ccc(Cl)cn2)Oc2cccc(C3CCN(Cc4nc5ccc(C(=O)O)cc5n4C[C@@H]4CCO4)CC3)c2O1` (single isomer, unassigned) [Example 10] was tested, and the Emax (human GLP-1R [1]; [4]) was 96% and the Emax (human GLP-1R [2]) was 99%.
In the case of `COCCn1c(C2CC23CCN(c2cccc4c2OC(C)(c2ccc(Cl)cc2F)O4)CC3)nc2ccc(C(=O)O)cc21` (single isomer, unassigned) [Example 15, 2-{6-[2-(4-Chloro-2-fluorophenyl)-2-methyl-1,3-benzodioxol-4-yl]-6-azaspiro[2.5]oct-1-yl}-1-(2-methoxyethyl)-1H-benzimidazole-6-carboxylic Acid], the EC50 (human GLP-1R [1]; [3]) is reported as over 20000 nM, the EC50 (human GLP-1R [2]) is reported as over 18000 nM and the Emax (human GLP-1R [2]) is reported as 100%.
Work on `COCCn1c(C2CC23CCN(c2cccc4c2OC(C)(c2ccc(Cl)cc2F)O4)CC3)nc2ccc(C(=O)O)cc21` (single isomer, unassigned) [Example 16, 2-{6-[2-(4-Chloro-2-fluorophenyl)-2-methyl-1,3-benzodioxol-4-yl]-6-azaspiro[2.5]oct-1-yl}-1-(2-methoxyethyl)-1H-benzimidazole-6-carboxylic Acid] yielded an EC50 (human GLP-1R [1]; [3]) of 120 nM, an Emax (human GLP-1R [1]; [4]) of 64% and an EC50 (human GLP-1R [2]) of 7.7 nM. For the same molecule, the “Assay 1 Emax (%)” value (human GLP-1R [2]) was 90%.
`CCn1cncc1Cn1c(CN2CCC(c3cccc4c3O[C@@](C)(c3ccc(Cl)cc3F)O4)CC2)nc2ccc(C(=O)O)cc21` (single isomer, unassigned) [Example 17, Ammonium 2-({4-[2-(4-chloro-2-fluorophenyl)-2-methyl-1,3-benzodioxol-4-yl]piperidin-1-yl}methyl)-1-[(I-ethyl-1H-imidazol-5-yl)methyl]-1H-benzimidazole-6-carboxylate] showed an EC50 (human GLP-1R [1]; [5]) of 1.1 nM and an EC50 (human GLP-1R [2]) of 0.079 nM.
`O=C(O)c1ccc2nc(CN3CCC(c4cccc5c4O[C@@H](c4ccc(Cl)cc4F)O5)CC3)n(C[C@@H]3CCO3)c2c1` [5, free acid, 2-({4-[(2S)-2-(4-Chloro-2-fluorophenyl)-1,3-benzodioxol-4-yl]piperidin-1-yl}methyl)-1-[(2S)-oxetan-2-ylmethyl]-1H-benzimidazole-6-carboxylic Acid] was tested, and the EC50 (human GLP-1R [1]; [6]) was 25 nM.
In the case of `C[C@]1(c2ccc(Cl)cc2F)Oc2cccc(C3CCN(Cc4nc5ccc(C(=O)O)cc5n4C[C@@H]4CCO4)CC3)c2O1` [7, free acid, 2-({4-[(2S)-2-(4-Chloro-2-fluorophenyl)-2-methyl-1,3-benzodioxol-4-yl]piperidin-1-yl}methyl)-1-[(2S)-oxetan-2-ylmethyl]-1H-benzimidazole-6-carboxylic Acid], the EC50 (human GLP-1R [1]; [6]) is reported as 4.3 nM.
`COCCn1c(CN2CCC(c3cccc4c3OC(C)(c3cccnc3)O4)CC2)nc2ccc(C(=O)O)cc21` (stereo not shown) [Example 11, 1-(2-Methoxyethyl)-2-({4-[2-methyl-2-(pyridin-3-yl)-1,3-benzodioxol-4-yl]piperidin-1-yl}methyl)-1H-benzimidazole-6-carboxylic Acid] showed an EC50 (human GLP-1R [2]) of 290 nM and an Emax (human GLP-1R [2]) of 78%.
`COCCn1c(CN2CCN(c3cccc4c3OC(c3ccccc3)O4)CC2)nc2ccc(C(=O)O)cc21` (stereo not shown) [Example 22, 1-(2-methoxyethyl)-2-{[4-(2-phenyl-1,3-benzodioxol-4-yl)piperazin-1-yl]methyl}-1H-benzimidazole-6-carboxylic acid] showed an EC50 (human GLP-1R [2]) of over 20000 nM.
`COCCn1c(CN2CCN(c3cccc4c3OC(c3ccccc3)O4)CC2)nc2ccc(C(=O)O)cc21` (stereo not shown) [Example 23, 1-(2-methoxyethyl)-2-{[4-(2-phenyl-1,3-benzodioxol-4-yl)piperazin-1-yl]methyl}-1H-benzimidazole-6-carboxylic acid] showed an EC50 (human GLP-1R [2]) of 680 nM and an Emax (human GLP-1R [2]) of 76%.
In the case of `COCCn1c(CN2CCC(c3cccc4c3OC(C)(c3cccc(C(F)(F)F)c3)O4)CC2)nc2ccc(C(=O)O)cc21` (stereo not shown) [Example 28, 1-(2-methoxyethyl)-2-[(4-{2-methyl-2-[3-(trifluoromethyl)phenyl]-1,3-benzodioxol-4-yl}piperidin-1-yl)methyl]-1H-benzimidazole-6-carboxylic acid], the EC50 (human GLP-1R [2]) is reported as 480 nM and the Emax (human GLP-1R [2]) is reported as 87%.
Molecule `COCCn1c(CN2CCC(c3cccc4c3OC(C)(c3cccc(C)n3)O4)CC2)nc2ccc(C(=O)O)cc21` (stereo not shown) [Example 36, 1-(2-methoxyethyl)-2-({4-[2-methyl-2-(6-methylpyridin-2-yl)-1,3-benzodioxol-4-yl]piperidin-1-yl}methyl)-1H-benzimidazole-6-carboxylic acid] has an EC50 (human GLP-1R [2]) of 760 nM and an Emax (human GLP-1R [2]) of 85%.
Work on `COCCn1c(CN2CCC(c3cccc4c3OC(C)(c3cccc(OC)c3)O4)CC2)nc2ccc(C(=O)O)cc21` (stereo not shown) [Example 39, 1-(2-methoxyethyl)-2-({4-[2-(3-methoxyphenyl)-2-methyl-1,3-benzodioxol-4-yl]piperidin-1-yl}methyl)-1H-benzimidazole-6-carboxylic acid] yielded an EC50 (human GLP-1R [2]) of 200 nM and an Emax (human GLP-1R [2]) of 83%.
In the case of `CC1(c2ccc(Cl)cc2F)Oc2cccc(C3CCN(Cc4nc5ccc(C(=O)O)cc5n4CCN4CCOCC4)CC3)c2O1` (stereo not shown) [Example 44, 2-({4-[2-(4-chloro-2-fluorophenyl)-2-methyl-1,3-benzodioxol-4-yl]piperidin-1-yl}methyl)-1-[2-(morpholin-4-yl)ethyl]-1H-benzimidazole-6-carboxylic acid], the EC50 (human GLP-1R [2]) is reported as 160 nM and the Emax (human GLP-1R [2]) is reported as 78%.
In the case of `CC1(c2ccc(Cl)cc2F)Oc2cccc(C3CCN(Cc4nc5ccc(C(=O)O)cc5n4CCc4ncc[nH]4)CC3)c2O1` (stereo not shown) [Example 74, 2-({4-[2-(4-chloro-2-fluorophenyl)-2-methyl-1,3-benzodioxol-4-yl]piperidin-1-yl}methyl)-1-[2-(1H-imidazol-2-yl)ethyl]-1H-benzimidazole-6-carboxylic acid], the EC50 (human GLP-1R [2]) is reported as 460 nM and the Emax (human GLP-1R [2]) is reported as 90%.
`COCCn1c(CN2CCC(c3cccc4c3OC(C)(c3cccc(C)c3)O4)CC2)nc2ccc(C(=O)O)cc21` (stereo not shown) [Example 85, 1-(2-methoxyethyl)-2-({4-[2-methyl-2-(3-methylphenyl)-1,3-benzodioxol-4-yl]piperidin-1-yl}methyl)-1H-benzimidazole-6-carboxylic acid] showed an EC50 (human GLP-1R [2]) of 230 nM and an Emax (human GLP-1R [2]) of 80%.
With `COCCn1c(CN2CCC(c3cccc4c3OC(C)(c3cccc(C#N)c3)O4)CC2)nc2ccc(C(=O)O)cc21` (stereo not shown) [Example 87, 2-({4-[2-(3-cyanophenyl)-2-methyl-1,3-benzodioxol-4-yl]piperidin-1-yl}methyl)-1-(2-methoxyethyl)-1H-benzimidazole-6-carboxylic acid] the EC50 (human GLP-1R [2]) was 570 nM and the Emax (human GLP-1R [2]) was 89%.
In the case of `COCCn1c(CN2CCC(c3cccc4c3OC(C)(c3ccccn3)O4)CC2)nc2ccc(C(=O)O)cc21` (stereo not shown) [Example 90, 1-(2-methoxyethyl)-2-({4-[2-methyl-2-(pyridin-2-yl)-1,3-benzodioxol-4-yl]piperidin-1-yl}methyl)-1H-benzimidazole-6-carboxylic acid], the EC50 (human GLP-1R [2]) is reported as over 20000 nM.
Molecule `CC1(c2ccc(Cl)cn2)Oc2cccc(C3CCN(Cc4nc5ccc(C(=O)O)cc5n4C[C@@H]4CCO4)CC3)c2O1` (stereo partly drawn) [Example 95, 2-({4-[2-(5-chloropyridin-2-yl)-2-methyl-1,3-benzodioxol-4-yl]piperidin-1-yl}methyl)-1-[(2S)-oxetan-2-ylmethyl]-1H-benzimidazole-6-carboxylic acid] has an Emax (human GLP-1R [2]) of 77%.
`C[C@]1(c2ccc(Cl)cc2F)Oc2cccc(C3CCN(Cc4nc5ccc(C(=O)O)c(F)c5n4C[C@@H]4CCO4)CC3)c2O1` [Example 100, 2-({4-[(2S)-2-(4-chloro-2-fluorophenyl)-2-methyl-1,3-benzodioxol-4-yl]piperidin-1-yl}methyl)-7-fluoro-1[(2S)-oxetan-2-ylmethyl]-1H-benzimidazole-6-carboxylic acid] gave an EC50 (human GLP-1R [1]; [5]) of 7.6 nM and an Emax (human GLP-1R [1]; [4]) of 99%.
With `O=C(O)c1ccc2nc(CN3CCC(c4cccc5c4O[C@@H](c4ccc(Cl)cc4F)O5)CC3)n(C[C@@H]3CCO3)c2c1F` [Example 101, 2-({4-[(2S)-2-(4-chloro-2-fluorophenyl)-1,3-benzodioxol-4-yl]piperidin-1-yl}methyl)-7-fluoro-1-[(2S)-oxetan-2-ylmethyl]-1H-benzimidazole-6-carboxylic acid] the EC50 (human GLP-1R [1]; [5]) was 19 nM and the Emax (human GLP-1R [1]; [4]) was 74%.
Work on `COCCn1c(CN2CCC(c3cccc4c3OC(CO)(c3ccccc3)O4)CC2)nc2ccc(C(=O)O)cc21` (stereo not shown) [Example 102, 2-({4-[2-(hydroxymethyl)-2-phenyl-1,3-benzodioxol-4-yl]piperidin-1-yl}methyl)-1-(2-methoxyethyl)-1H-benzimidazole-6-carboxylic acid] yielded an EC50 (human GLP-1R [2]) of 600 nM and an Emax (human GLP-1R [2]) of 86%.
